This note sets out measurements from the supplement of paper PMC10307832.

Common to all, as to assay: relative viability (nuclei count vs DMSO), 5 days (fraction); higher = more cells survive
Compound in assay [1]: Cc1ccc(C(=O)Nc2ccc(CN3CCN(C)CC3)c(C(F)(F)F)c2)cc1C#Cc1cnc2cccnn12 [Ponatinib] + O=C(c1cc(Cc2n[nH]c(=O)c3ccccc23)ccc1F)N1CCN(C(=O)C2CC2)CC1 [Olaparib] (partner 8 µM)
In short, it runs like this:
(§1)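 Medians of duplicate plates are given as relative viability. That measure is the nuclei count in treated wells divided by the count in vehicle wells. Counts were taken on 4× images of lung cancer cell lines in 1536-well plates, 5 days after pin-tool dosing the day after seeding with one drug alone or a fixed anchor-drug dose plus five library-drug doses (not always all listed) in √10 steps.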

Compound in assay [2]: Cc1ccc(Nc2nccc(N(C)c3ccc4c(C)n(C)nc4c3)n2)cc1S(N)(=O)=O [Pazopanib] + CC(=O)Nc1cccc(-n2c(=O)n(C3CC3)c(=O)c3c(Nc4ccc(I)cc4F)n(C)c(=O)c(C)c32)c1 [Trametinib] (partner 0.02 µM)
In short, it runs like this:
as §1

Compound in assay [3]: Cc1ccc(Nc2nccc(N(C)c3ccc4c(C)n(C)nc4c3)n2)cc1S(N)(=O)=O [Pazopanib] + C[C@@H](Oc1cc(-c2cnn(C3CCNCC3)c2)cnc1N)c1c(Cl)ccc(F)c1Cl [Crizotinib] (partner 1 µM)
In short, it runs like this:
as §1

Compound in assay [4]: Cc1ccc(Nc2nccc(N(C)c3ccc4c(C)n(C)nc4c3)n2)cc1S(N)(=O)=O [Pazopanib] + COc1cccc2cc(-c3nc([C@H]4CC[C@H](C(=O)O)CC4)n4ncnc(N)c34)[nH]c12 [OSI-027] (partner 0.5 µM)
In outline: as §1

Take SW 1573: the relative viability in assay [1] (first compound 0.002 µM) stood at 0.591; in assay [1] (first compound 0.006325 µM) it was 0.519; in assay [1] (first compound 0.06325 µM) it was 0.496; in assay [1] (first compound 0.2 µM), 0.408; in assay [2] (first compound 0.01 µM) it was 0.604; in assay [2] (first compound 0.03162 µM), 0.671. Also, the relative viability in assay [2] (first compound 0.1 µM) turned out to be 0.604; in assay [2] (first compound 0.3162 µM), 0.649; in assay [2] (first compound 1 µM), 0.494; in assay [3] (first compound 0.01 µM), 0.813; in assay [3] (first compound 0.03162 µM), 0.878; in assay [3] (first compound 0.1 µM), 0.974. Besides, the relative viability in assay [3] (first compound 0.3162 µM) was found to be 0.836; in assay [3] (first compound 1 µM), 0.757; in assay [4] (first compound 0.01 µM), 0.566; in assay [4] (first compound 0.03162 µM), 0.728; in assay [4] (first compound 0.1 µM) it was 0.684; in assay [4] (first compound 0.3162 µM), 0.715. The relative viability in assay [4] (first compound 1 µM) is 0.765.
On to RERF-LC-KJ, for which the relative viability in assay [1] (first compound 0.002 µM) is 0.874; in assay [1] (first compound 0.006325 µM), 0.879; in assay [1] (first compound 0.06325 µM) it was 0.988; in assay [1] (first compound 0.2 µM), 0.793; in assay [2] (first compound 0.01 µM) it was 0.82; in assay [2] (first compound 0.03162 µM), 0.892. For the same cell line, the relative viability in assay [2] (first compound 0.1 µM) was found to be 0.842; in assay [2] (first compound 0.3162 µM), 0.805; in assay [2] (first compound 1 µM), 0.853; in assay [3] (first compound 0.01 µM), 0.794; in assay [3] (first compound 0.03162 µM), 0.773; in assay [3] (first compound 0.1 µM), 0.812. Also, the relative viability in assay [3] (first compound 0.3162 µM) was 0.775; in assay [3] (first compound 1 µM), 0.789; in assay [4] (first compound 0.01 µM), 0.677; in assay [4] (first compound 0.03162 µM), 0.605; in assay [4] (first compound 0.1 µM), 0.605; in assay [4] (first compound 0.3162 µM), 0.515. Further, in assay [4] (first compound 1 µM), the relative viability came to 0.617.
Turning to EMC-BAC-2, the relative viability worked out at 0.434 in assay [1] (first compound 0.002 µM); 0.455 in assay [1] (first compound 0.006325 µM); 0.482 in assay [1] (first compound 0.06325 µM); 0.398 in assay [1] (first compound 0.2 µM); 0.965 in assay [2] (first compound 0.03162 µM); 0.897 in assay [2] (first compound 0.1 µM). Besides, the relative viability was 0.931 in assay [2] (first compound 0.3162 µM); 1.1 in assay [2] (first compound 1 µM); 0.735 in assay [3] (first compound 0.01 µM); 0.786 in assay [3] (first compound 0.03162 µM); 0.649 in assay [3] (first compound 0.1 µM); 0.782 in assay [3] (first compound 0.3162 µM). The relative viability came to 0.749 in assay [3] (first compound 1 µM); 0.424 in assay [4] (first compound 0.03162 µM); 0.394 in assay [4] (first compound 0.1 µM); 0.404 in assay [4] (first compound 0.3162 µM); 0.399 in assay [4] (first compound 1 µM).
Turning to LK-2, the relative viability in assay [1] (first compound 0.002 µM) came to 0.584; in assay [1] (first compound 0.006325 µM) it was 0.759; in assay [1] (first compound 0.06325 µM), 0.661; in assay [1] (first compound 0.2 µM), 0.435; in assay [2] (first compound 0.01 µM) it was 0.643; in assay [2] (first compound 0.03162 µM) it was 0.788. For the same cell line, the relative viability amounted to 0.562 in assay [2] (first compound 0.1 µM); 0.565 in assay [2] (first compound 0.3162 µM); 0.755 in assay [2] (first compound 1 µM); 0.224 in assay [3] (first compound 0.01 µM); 0.239 in assay [3] (first compound 0.03162 µM); 0.213 in assay [3] (first compound 0.1 µM). Further, the relative viability in assay [3] (first compound 0.3162 µM) was found to be 0.21; in assay [3] (first compound 1 µM) it was 0.235; in assay [4] (first compound 0.01 µM), 0.199; in assay [4] (first compound 0.03162 µM) it was 0.228; in assay [4] (first compound 0.1 µM) it was 0.185; in assay [4] (first compound 0.3162 µM), 0.233. Besides, the relative viability in assay [4] (first compound 1 µM) stood at 0.171.
For the cell line NCI-H2126, the relative viability in assay [1] (first compound 0.002 µM) came out at 0.902; in assay [1] (first compound 0.006325 µM), 0.904; in assay [1] (first compound 0.06325 µM) it was 0.967; in assay [1] (first compound 0.2 µM), 0.847; in assay [2] (first compound 0.01 µM), 0.506; in assay [2] (first compound 0.03162 µM), 0.503. For the same cell line, the relative viability is 0.599 in assay [2] (first compound 0.1 µM); 0.563 in assay [2] (first compound 0.3162 µM); 0.577 in assay [2] (first compound 1 µM); 0.935 in assay [3] (first compound 0.01 µM); 1.09 in assay [3] (first compound 0.03162 µM); 1.03 in assay [3] (first compound 0.1 µM). Moreover, the relative viability in assay [3] (first compound 0.3162 µM) is 0.96; in assay [3] (first compound 1 µM) it was 1.03; in assay [4] (first compound 0.01 µM), 0.643; in assay [4] (first compound 0.03162 µM) it was 0.612; in assay [4] (first compound 0.1 µM), 0.68; in assay [4] (first compound 0.3162 µM) it was 0.718. Also, the relative viability in assay [4] (first compound 1 µM) came out at 0.719.
Take NCI-H322M: the relative viability in assay [1] (first compound 0.002 µM) is 0.787; in assay [1] (first compound 0.006325 µM), 0.729; in assay [1] (first compound 0.06325 µM) it was 0.739; in assay [1] (first compound 0.2 µM), 0.649; in assay [2] (first compound 0.01 µM) it was 0.513; in assay [2] (first compound 0.03162 µM), 0.471. Also, the relative viability came out at 0.482 in assay [2] (first compound 0.1 µM); 0.452 in assay [2] (first compound 0.3162 µM); 0.489 in assay [2] (first compound 1 µM); 0.922 in assay [3] (first compound 0.01 µM); 0.924 in assay [3] (first compound 0.03162 µM); 0.784 in assay [3] (first compound 0.1 µM). Further, the relative viability in assay [3] (first compound 0.3162 µM) was 0.893; in assay [3] (first compound 1 µM), 0.844; in assay [4] (first compound 0.01 µM), 0.531; in assay [4] (first compound 0.03162 µM), 0.646; in assay [4] (first compound 0.1 µM) it was 0.533; in assay [4] (first compound 0.3162 µM) it was 0.636. In assay [4] (first compound 1 µM), the relative viability came to 0.607.
On to NCI-H1975, for which the relative viability in assay [1] (first compound 0.002 µM) worked out at 0.756; in assay [1] (first compound 0.006325 µM), 0.77; in assay [1] (first compound 0.06325 µM) it was 0.787; in assay [1] (first compound 0.2 µM), 0.732; in assay [2] (first compound 0.01 µM), 0.277; in assay [2] (first compound 0.03162 µM), 0.323. The relative viability in assay [2] (first compound 0.1 µM) is 0.369; in assay [2] (first compound 0.3162 µM), 0.373; in assay [2] (first compound 1 µM) it was 0.401; in assay [3] (first compound 0.01 µM), 0.888; in assay [3] (first compound 0.03162 µM), 1.02; in assay [3] (first compound 0.1 µM), 0.991. The relative viability in assay [3] (first compound 0.3162 µM) is 0.964; in assay [3] (first compound 1 µM), 0.926; in assay [4] (first compound 0.01 µM), 0.677; in assay [4] (first compound 0.03162 µM), 0.723; in assay [4] (first compound 0.1 µM), 0.861; in assay [4] (first compound 0.3162 µM), 0.735. Besides, in assay [4] (first compound 1 µM), the relative viability worked out at 0.734.
